Key:
[1] = biological target: T1, urokinase from human kidney cells (human uPA) (Homo sapiens, UniProt P00749); experiment: uPA inhibition assay (fluorescence-based, purified enzyme); type: biochemical; details: for IC50: purified enzyme, Z-Gly-Gly-Arg-AMC substrate, number in parentheses after value, read-out: uPA IC50
T1 construct: low molecular weight active human uPA; purchased Sigma-Aldrich U4010; host or cells: human kidney cells

NHE1 = biological target: T2, NHE1 (Homo sapiens, UniProt P19634); experiment: Plate-based NHE1 inhibition assay (BCECF pHi recovery, 96-well plate reader); type: cell-based; details: MDA-MB-231 cells, plate reader
T2 construct: endogenous in cells; host or cells: MDA-MB-231
Protocol: To perform NHE1 screening with increased throughput, we adapted the conventional cuvette-based NHE1 activity assay to a simple new 96-well plate format using MDA-MB-231 cells that were compatible with common laboratory fluorescence plate readers (see Section 4 for details).
Culture media were removed and replaced with 200 µL 0.2% FBS-containing media with incubation for 3–4 h to stimulate NHE1 activity, followed by incubation for 30 min in the presence of 5 µM 2′,7′-bis(carboxyethyl)-5(6)-carboxyfluorescein-acetoxymethyl ester (BCECF-AM, cat #ab143463, Abcam, Cambridge, United Kingdom). Cells were then washed with 100 µL/well Na^+-free acid-load buffer: 10 mM NH4Cl, 1.8 mM CaCl2, 90 mM N-methyl-D-glucamine (from 1 M stock titrated to pH 7.4 with HCl), 5 mM glucose, 15 mM HEPES, 5 mM KCl, 1 mM MgCl2 (pH 7.5, adjusted with KOH), and incubated at 37 °C for a further 30 min. Acid-load buffer was removed and replaced with Na^+-containing assay buffer: 100 mM NaCl, 1.8 mM CaCl2, 5 mM glucose, 15 mM HEPES, 5 mM KCl, 1 mM MgCl2 containing serial dilution of each compound or DMSO vehicle, and changes in fluorescence were read immediately using a BMG Labtech POLARstar OMEGA (BMG Labtech GmbH, Offenburg, Germany) plate reader according to the parameters in Table S1. Compounds were tested at n = 3 technical replicates per concentration per plate. BCECF-AM-free cells were treated with matched concentrations of each compound to correct for intrinsic fluorescence. DMSO was present in all wells at a final concentration of 1% v/v. Inhibition of NHE1-mediated pHi recovery was determined by ratiometric calculation of the change in blank-corrected pH-sensitive fluorescence divided by the isobestic fluorescence for each well over time. […] (0% activity) controls present on each plate. IC50 values were determined through fitting of Log-10 transformed data using the “log(inhibitor) versus normalised response–variable slope” non-linear function in GraphPad PRISM v8.0 software package (GraphPad Software, San Diego, CA, USA).

[2] = Cell viability (cytotoxicity) assay; type: cell-based; details: human, MDA-MB-231 cells, 48 h treatment
Protocol: On the day of treatment, respective compounds were serially diluted using a semi-logarithmic dilution series from 20 mM stocks in neat DMSO into DMEM-high glucose media (10% v/v FBS) in a separate 96-well plate and under sterile conditions. Thereafter, 10 μL of the diluted compounds at their respective concentrations (n = 4) were added to the cells. […] Vehicle media blanks or drug blanks were also included to correct for inherent colour of the compounds and phenol red-containing media. Following 48 h treatment, 20 μL CellTitre 96® Aqueous One Solution Cell Proliferation Assay (Promega, Madison, USA) was added to each well, plates were incubated for 2 h, and absorbance was measured at 490 nm using a SpectraMax Plus 384-well plate reader (Molecular Devices LLC, San Jose, USA) and Softmax PRO v7.0 software. Blank-corrected data were analysed and graphed using GraphPad PRISM v8.0 software (GraphPad Software, San Diego, CA USA).

T2 sequence (P19634 whole entry): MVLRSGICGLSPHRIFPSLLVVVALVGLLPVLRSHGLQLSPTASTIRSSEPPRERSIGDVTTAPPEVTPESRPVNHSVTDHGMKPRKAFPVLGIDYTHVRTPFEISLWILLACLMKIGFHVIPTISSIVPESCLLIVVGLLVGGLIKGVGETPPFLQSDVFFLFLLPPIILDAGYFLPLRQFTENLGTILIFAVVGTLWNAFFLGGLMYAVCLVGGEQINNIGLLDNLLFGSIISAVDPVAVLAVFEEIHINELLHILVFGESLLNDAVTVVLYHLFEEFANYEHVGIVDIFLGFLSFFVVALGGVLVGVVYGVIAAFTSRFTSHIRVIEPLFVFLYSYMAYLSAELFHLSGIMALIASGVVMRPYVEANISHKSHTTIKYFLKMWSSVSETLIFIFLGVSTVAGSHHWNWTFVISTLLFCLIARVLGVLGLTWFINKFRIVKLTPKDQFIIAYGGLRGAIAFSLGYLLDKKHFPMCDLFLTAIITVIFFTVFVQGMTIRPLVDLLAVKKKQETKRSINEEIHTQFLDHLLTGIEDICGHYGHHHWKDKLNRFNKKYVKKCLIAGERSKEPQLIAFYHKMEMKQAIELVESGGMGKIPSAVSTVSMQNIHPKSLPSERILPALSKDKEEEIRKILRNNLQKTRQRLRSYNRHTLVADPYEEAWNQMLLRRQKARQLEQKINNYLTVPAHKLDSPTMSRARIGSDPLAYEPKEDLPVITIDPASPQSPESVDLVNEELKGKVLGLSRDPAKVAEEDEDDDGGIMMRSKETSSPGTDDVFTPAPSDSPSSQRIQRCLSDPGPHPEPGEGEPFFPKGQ

SMILES | IC50 [1] | inhibition at 1 µM (NHE1) | NHE1 Inhibition (%) 10 μM (NHE1; 10 μM) | inhibition at 10 µM (NHE1; 10 μM) | IC50 at 48 h [2] | inhibition at 2.5 µM ([1]; @ 2,500 nM, read-out: uPA inhibition at single concentration (printed in uPA IC50 column)) | higher uPA activity than its HMA congener 15 [1] | decrease in uPA activity on opening the 5-alkylamino ring ([1]; within the 6-(2-benzofuranyl) series)
N=C(N)NC(=O)c1nc(Cl)c(N2CCCCCC2)nc1N [HMA, 5-(N,N-hexamethylene)amiloride, reference compound] | 2.21 µM | 66% | completely blocking activity | 100% | 32.1 µM | – | – | –
N=C(N)NC(=O)c1nc(I)c(N)nc1N [compound 3] | 1.58 µM | 36% | – | 86% | > 100 µM | – | – | –
N=C(N)NC(=O)c1nc(-c2cc3ccccc3o2)c(N2CCCCCC2)nc1N [compound 5] | 0.297 ± 0.016 µM | 39% | – | 72% | 19.1 µM | – | – | –
Cc1ccc2oc(-c3nc(C(=O)NC(=N)N)c(N)nc3N)cc2c1 [compound 6] | 1.05 µM | 0% | – | 71% | 11.7 µM | – | – | –
Cc1ccc2oc(-c3nc(C(=O)NC(=N)N)c(N)nc3N3CCCCCC3)cc2c1 [compound 7] | 1.18 µM | 5% | – | 100% | 8.8 µM | – | – | –
N=C(N)NC(=O)c1nc(-c2cc3cc(F)ccc3o2)c(N)nc1N [compound 8] | 0.954 ± 0.072 µM | 0% | – | 75% | 10.6 µM | – | – | –
N=C(N)NC(=O)c1nc(-c2cc3cc(F)ccc3o2)c(N2CCCCCC2)nc1N [compound 9] | 0.187 ± 0.017 µM | 22% | – | 100% | 9.6 µM | – | – | –
N=C(N)NC(=O)c1nc(-c2cc3cc(Cl)ccc3o2)c(N)nc1N [compound 10] | 0.94 ± 0.059 µM | 0% | – | 62% | 4.4 µM | – | – | –
N=C(N)NC(=O)c1nc(-c2cc3cc(Cl)ccc3o2)c(N2CCCCCC2)nc1N [compound 11] | – | 0% | – | 0% | 26.4 µM | 49% | – | –
N=C(N)NC(=O)c1nc(-c2cc3cc(Br)ccc3o2)c(N)nc1N [compound 12] | 5.93 µM | 0% | – | 97% | 32.1 µM | – | – | –
N=C(N)NC(=O)c1nc(-c2cc3cc(Br)ccc3o2)c(N2CCCCCC2)nc1N [compound 13] | 2.56 µM | 0% | – | 0% | 6.2 µM | – | – | –
COc1ccc2oc(-c3nc(C(=O)NC(=N)N)c(N)nc3N)cc2c1 [compound 14] | 0.467 ± 0.022 µM | 4% | – | 36% | > 100 µM | – | > 3 fold | –
COc1ccc2oc(-c3nc(C(=O)NC(=N)N)c(N)nc3N3CCCCCC3)cc2c1 [compound 15] | 1.69 µM | 34% | – | 91% | 25.1 µM | – | – | –
N=C(N)NC(=O)c1nc(-c2cc3cc(F)cc(F)c3o2)c(N)nc1N [compound 16] | 0.609 ± 0.026 µM | 7% | – | 52% | 4.7 µM | – | – | –
N=C(N)NC(=O)c1nc(-c2cc3cc(F)cc(F)c3o2)c(N2CCCCCC2)nc1N [compound 17] | 0.38 ± 0.01 µM | 0% | – | 90% | 8.8 µM | – | – | –
N=C(N)NC(=O)c1nc(-c2cc3cnccc3o2)c(N)nc1N [compound 18] | 1.01 µM | – | – | – | 26.4 µM | – | – | –
N=C(N)NC(=O)c1nc(-c2cc3cnccc3o2)c(N2CCCCCC2)nc1N [compound 19] | 0.164 µM | 23% | – | 100% | 69.4 µM | – | – | –
N=C(N)NC(=O)c1nc(-c2cc3ncccc3o2)c(N)nc1N [compound 20] | 0.453 µM | 0% | – | 31% | > 100 µM | – | – | –

SMILES | IC50 [1] | inhibition at 1 µM (NHE1) | NHE1 Inhibition (%) 10 μM (NHE1; 10 μM) | inhibition at 10 µM (NHE1; 10 μM) | IC50 at 48 h [2] | inhibition at 2.5 µM ([1]; @ 2,500 nM, read-out: uPA inhibition at single concentration (printed in uPA IC50 column)) | higher uPA activity than its HMA congener 15 [1] | decrease in uPA activity on opening the 5-alkylamino ring ([1]; within the 6-(2-benzofuranyl) series)
N=C(N)NC(=O)c1nc(-c2cc3ncccc3o2)c(N2CCCCCC2)nc1N [compound 21] | 0.038 µM | 2% | – | 100% | 43.1 µM | – | – | –
N=C(N)NC(=O)c1nc(-c2ccc(C(F)(F)F)cc2)c(N)nc1N [compound 22] | 5.1 µM | – | – | – | 82.4 µM | – | – | –
N=C(N)NC(=O)c1nc(-c2ccc(C(F)(F)F)cc2)c(N2CCCCCC2)nc1N [compound 23] | 6.91 µM | 77% | – | 100% | 14.7 µM | – | – | –
COc1ncc(-c2nc(C(=O)NC(=N)N)c(N)nc2N)cn1 [compound 25] | 0.333 ± 0.022 µM | 0% | – | 18% | > 100 µM | – | – | –
N=C(N)NC(=O)c1nc(-c2cnc(N)nc2)c(N2CCCCCC2)nc1N [compound 27] | 0.034 ± 0.005 µM | 0% | – | 11% | > 100 µM | – | – | –
N=C(N)NC(=O)c1nc(-c2cnc(NCCO)nc2)c(N2CCCCCC2)nc1N [compound 28] | 0.067 ± 0.003 µM | 0% | – | 15% | > 100 µM | – | – | –
N=C(N)NC(=O)c1nc(-c2cc3ccccc3o2)c(N2CCCC2)nc1N [compound 31] | 0.546 ± 0.024 µM | 18% | – | 85% | 22.7 µM | – | – | –
N=C(N)NC(=O)c1nc(-c2cc3ccccc3o2)c(N2CCCCC2)nc1N [compound 32] | 1.88 µM | 69% | – | 100% | 16.2 µM | – | – | –
CCN(c1nc(N)c(C(=O)NC(=N)N)nc1-c1cc2ccccc2o1)C(C)C [compound 33] | 1.6 µM | 8% | – | 41% | 17.2 µM | – | – | > 5 fold
N=C(N)NC(=O)c1nc(-c2cc3ccccc3o2)c(NC2CCCC2)nc1N [compound 34] | 5.87 µM | 0% | – | 0% | 6.2 µM | – | – | –
N=C(N)NC(=O)c1nc(-c2cc3ccccc3o2)c(NC2CCCCCC2)nc1N [compound 35] | 30.2 µM | 0% | – | 0% | 26.2 µM | – | – | –
N=C(N)NC(=O)c1nc(-c2cc3ccccc3o2)c(N2CCOCC2)nc1N [compound 36] | 0.797 ± 0.015 µM | 29% | – | 81% | 36.7 µM | – | – | –
N=C(N)NC(=O)c1nc(-c2cc3ccccc3o2)c(N2CCCOCC2)nc1N [compound 37] | 0.149 ± 0.017 µM | 55% | – | 96% | 54 µM | – | – | –
N=C(N)NC(=O)c1nc(-c2cc3ncccc3o2)c(N2CCCC2)nc1N [compound 38] | 0.113 ± 0.004 µM | 0% | – | 81% | > 100 µM | – | – | –
N=C(N)NC(=O)c1nc(-c2ccc(C(F)(F)F)cc2)c(C2CC2)nc1N [compound 40] | 16.2 µM | 28% | – | 80% | 26.6 µM | – | – | –
N=C(N)NC(=O)c1nc(-c2cncnc2)c(N2CCOCC2)nc1N [compound 41] | 0.563 ± 0.029 µM | 77% | – | 87% | > 100 µM | – | – | –
N=C(N)NC(=O)c1nc(-c2cncnc2)c(N2CCCOCC2)nc1N [compound 42] | 0.78 ± 0.033 µM | 39% | – | 96% | > 100 µM | – | – | –
COc1ncc(-c2nc(C(=O)NC(=N)N)c(N)nc2N2CCCOCC2)cn1 [compound 43] | 0.267 ± 0.014 µM | 0% | – | 16% | > 100 µM | – | – | –
